# Reference: patent US12059453B2, “Blood plasma fractions for use in muscle regeneration” (Alkahest, Inc., priority 2019, dated 2024)
# System: C2C12 cells
# Test: IGF-1 versus PPF1 dose-response on glucose utilization, C2C12 cells in 2% horse serum
# Assay type: cell-based
# Conditions: treatment day 5, read day 6
# Description: FIG. 16A and FIG. 16B report the effects of insulin-like growth factor-1 (IGF-1) on glucose utilization in C2C12 cells treated in 2% horse serum. Cells were plated in DMEM plus 4.5 g/L of glucose and 10% fetal bovine serum (FBS) at Day −2 (d−2). At Day 0 (d0) media was refreshed with DMEM plus 1 g/L glucose and 2% horse serum. At Day 5 (d5) various treatments were added with glucose utilization determined at Day 6 (d6). […] Recombinant human IGF1 was purchased from R&D Systems (Cat. 291-G1). […] IGF-1 is known to have an impact on metabolism of myotubes, and its presence in PPF1 has been calculated as approximately 14.88 ng/mL. […] Thus, other factors must necessarily be involved in the effects of PPF1.
substance,measurement,value
recombinant human IGF-1: Recombinant human IGF1 purchased from R&D Systems (Cat. 291-G1),"EC50, glucose utilization",0.01743 µg/mL
